In US20130281467A1, “NOVEL MICROBICIDES” (SYNGENTA PARTICIPATIONS AG, priority 2010, published 2013) one finds melting point, pest or weed control and inhibition data, which are given here for twelve compounds.

The subject of series [1] is Puccinia recondita f. sp. tritici. Kind of series: Fungicidal activity against Puccinia recondita f. sp. tritici / wheat / leaf disc preventative (brown rust). It counts as in vivo. Conditions: foliar, wheat leaf segments, inoculated 1 day after application, compared to untreated, read-out: disease control. The protocol:
Fungicidal Activity Against Puccinia recondita f. sp. tritici/Wheat/Leaf Disc Preventative (Brown Rust) Wheat leaf segments cv. Kanzler were placed on agar in multiwell plates (24-well format) and sprayed with the formulated test compound diluted in water. The leaf disks were inoculated with a spore suspension of the fungus 1 day after application. The inoculated leaf segments were incubated at 19° C. and 75% rh under a light regime of 12 h light/12 h darkness in a climate cabinet and the activity of a compound was assessed as percent disease control compared to untreated when an appropriate level of disease damage appears in untreated check leaf segments (7-9 days after application).

The test system of series [2] is Glomerella lagenarium (Colletotrichum lagenarium). Description: Fungicidal activity against Glomerella lagenarium (Colletotrichum lagenarium) / liquid culture (anthracnose). It counts as cell-based. Conditions: Colletotrichum orbiculare, 3-4 days after application, read-out: disease control (inhibition of growth, photometrically). The method, then:
Fungicidal Activity Against Glomerella lagenarium (Colletotrichum lagenarium)/Liquid Culture (Anthracnose) Conidia of the fungus from cryogenic storage were directly mixed into nutrient broth (PDB potato dextrose broth). After placing a (DMSO) solution of test compound into a microtiter plate (96-well format), the nutrient broth containing the fungal spores was added. The test plates were incubated at 24° C. and the inhibition of growth was measured photometrically 3-4 days after application.

The subject of series [3] is Blumeria graminis f. Sp. tritici (Erysiphe graminis f. sp. tritici). Description: Fungicidal activity against Blumeria graminis f. sp. tritici / wheat / leaf disc preventative (powdery mildew on wheat). It counts as in vivo. Conditions: foliar, wheat leaf segments, inoculated 1 day after application, compared to untreated, read-out: disease control. The method, then:
Fungicidal Activity Against Blumeria graminis f. Sp. tritici (Erysiphe graminis f. sp. tritici)/Wheat/Leaf Disc Preventative (Powdery Mildew on Wheat)
Wheat leaf segments cv. Kanzler were placed on agar in a multiwell plate (24-well format) and sprayed with the formulated test compound diluted in water. The leaf disks were inoculated by shaking powdery mildew infected plants above the test plates 1 day after application. The inoculated leaf disks were incubated at 20° C. and 60% rh under a light regime of 24 h darkness followed by 12 h light/12 h darkness in a climate chamber and the activity of a compound was assessed as percent disease control compared to untreated when an appropriate level of disease damage appears on untreated check leaf segments (6-8 days after application).

Series [4] deals with Mycosphaerella arachidis (Cercospora arachidicola). Kind of series: Fungicidal activity against Mycosphaerella arachidis (Cercospora arachidicola) / liquid culture (early leaf spot). In kind it is cell-based. Conditions: 4-5 days after application, read-out: disease control (inhibition of growth, photometrically). The protocol: Fungicidal Activity Against Mycosphaerella arachidis (Cercospora arachidicola)/Liquid Culture (Early Leaf Spot) Conidia of the fungus from cryogenic storage were directly mixed into nutrient broth (PDB potato dextrose broth). After placing a (DMSO) solution of test compound into a microtiter plate (96-well format), the nutrient broth containing the fungal spores was added. The test plates were incubated at 24° C. and the inhibition of growth was determined photometrically 4-5 days after application.

For the next series, the system named is Gaeumannomyces graminis. Kind of series: Fungicidal activity against Gaeumannomyces graminis / liquid culture (take-all of cereals). It counts as cell-based. Conditions: 4-5 days after application, read-out: disease control (inhibition of growth, photometrically). The protocol:
Fungicidal Activity Against Gaeumannomyces graminis/Liquid Culture (Take-all of Cereals) Mycelial fragments of the fungus from cryogenic storage were directly mixed into nutrient broth (PDB potato dextrose broth). After placing a (DMSO) solution of test compound into a microtiter plate (96-well format), the nutrient broth containing the fungal spores iss added. The test plates were incubated at 24° C. and the inhibition of growth was determined photometrically 4-5 days after application.

Series [5] deals with Monographella nivalis (Microdochium nivale). Kind of series: Fungicidal activity against Monographella nivalis (Microdochium nivale) / liquid culture (foot rot cereals). Conditions: 4-5 days after application, read-out: disease control (inhibition of growth, photometrically). In kind it is cell-based. The method, then: Fungicidal Activity Against Monographella nivalis (Microdochium nivale)/Liquid Culture (Foot Rot Cereals) Conidia of the fungus from cryogenic storage were directly mixed into nutrient broth (PDB potato dextrose broth). After placing a (DMSO) solution of test compound into a microtiter plate (96-well format), the nutrient broth containing the fungal spores was added. The test plates were incubated at 24° C. and the inhibition of growth was determined photometrically 4-5 days after application.

In series [6] the test system is Botryotinia fuckeliana (Botrytis cinerea). Description: Fungicidal activity against Botryotinia fuckeliana (Botrytis cinerea) / liquid culture (gray mould). It counts as cell-based. Conditions: 3-4 days after application, read-out: disease control (inhibition of growth, photometrically). The protocol: Fungicidal Activity Against Botryotinia fuckeliana (Botrytis cinerea)/Liquid Culture (Gray Mould) Conidia of the fungus from cryogenic storage were directly mixed into nutrient broth (Vogels broth). After placing a (DMSO) solution of test compound into a microtiter plate (96-well format), the nutrient broth containing the fungal spores was added. The test plates were incubated at 24° C. and the inhibition of growth was determined photometrically 3-4 days after application.

The subject of the next series is Pyrenophora teres. Description: Fungicidal activity against Pyrenophora teres / barley / leaf disc preventative (net blotch). It counts as in vivo. Conditions: foliar, barley leaf segments, inoculated 2 days after application, compared to untreated, read-out: disease control. The method, then:
Fungicidal Activity Against Pyrenophora teres/Barley/Leaf Disc Preventative (Net Blotch) Barley leaf segments cv. Hasso were placed on agar in a multiwell plate (24-well format) and sprayed with the formulated test compound diluted in water. The leaf segments were inoculated with a spore suspension of the fungus 2 days after application. The inoculated leaf segments were incubated at 20° C. and 65% rh under a light regime of 12 h light/12 h darkness in a climate cabinet and the activity of a compound was assessed as disease control compared to untreated when an appropriate level of disease damage appears in untreated check leaf segments (5-7 days after application).

The test system of series [7] is Phaeosphaeria nodorum (Septoria nodorum). Kind of series: Fungicidal activity against Phaeosphaeria nodorum (Septoria nodorum) / wheat / leaf disc preventative (glume blotch). The note with it: Parastagonospora nodorum, foliar, wheat leaf segments, inoculated 2 days after application, compared to untreated, read-out: disease control. In kind it is in vivo. The method, then: Fungicidal Activity Against Phaeosphaeria nodorum (Septoria nodorum)/Wheat/Leaf Disc Preventative (Glume Blotch) Wheat leaf segments cv. Kanzler were placed on agar in a multiwell plate (24-well format) and sprayed with the formulated test compound diluted in water. The leaf disks were inoculated with a spore suspension of the fungus 2 days after application. The inoculated test leaf disks were incubated at 20° C. and 75% rh under a light regime of 12 h light/12 h darkness in a climate cabinet and the activity of a compound was assessed as percent disease control compared to untreated when an appropriate level of disease damage appears in untreated check leaf disks (5-7 days after application).

Series [8] has as its system Mycosphaerella graminicola (Septoria tritici). Description: Fungicidal activity against Mycosphaerella graminicola (Septoria tritici) / liquid culture (Septoria blotch). In kind it is cell-based. The note with it: Zymoseptoria tritici, 4-5 days after application, read-out: disease control (inhibition of growth, photometrically). The protocol: Fungicidal Activity Against Mycosphaerella graminicola (Septoria tritici)/Liquid Culture (Septoria Blotch) Conidia of the fungus from cryogenic storage were directly mixed into nutrient broth (PDB potato dextrose broth). After placing a (DMSO) solution of test compound into a microtiter plate (96-well format), the nutrient broth containing the fungal spores was added. The test plates were incubated at 24° C. and the inhibition of growth was determined photometrically 4-5 days after application.

For series [9], the system named is Thanatephorus cucumeris (Rhizoctonia solani). Description: Fungicidal activity against Thanatephorus cucumeris (Rhizoctonia solani) / liquid culture (foot rot, damping-off). In kind it is cell-based. The note with it: 3-4 days after application, read-out: disease control (inhibition of growth, photometrically). The method, then: Fungicidal Activity Against Thanatephorus cucumeris (Rhizoctonia solani)/Liquid Culture (Foot Rot, Damping-Off) Mycelia fragments of a newly grown liquid culture of the fungus were directly mixed into nutrient broth (PDB potato dextrose broth). After placing a (DMSO) solution of the test compounds into a microtiter plate (96-well format), the nutrient broth containing the fungal material was added. The test plates were incubated at 24° C. and the inhibition of growth was determined photometrically 3-4 days after application.

In turn, `N#Cc1cccc(Cc2cccc(-c3ncc4c(n3)CCOC4)n2)c1` [Compound 8] returned a melting point of 206 to 207 °C.

Regarding `CO/N=C1\CCCc2nc(-c3cccc(Cc4ccccc4)n3)ncc21` [Compound 9], the melting point is 213 to 215 °C. Moreover, in [1], the pest or weed control at 200 ppm was ≥ 80%. The inhibition at 200 ppm in series [2] is ≥ 80%. Besides, in series [3], the pest or weed control at 200 ppm is ≥ 80%. In [4], the inhibition at 200 ppm is ≥ 80%. In addition, the inhibition at 200 ppm in the series on Gaeumannomyces graminis was ≥ 80%. In addition, the inhibition at 200 ppm in series [5] was ≥ 80%. Also, the inhibition at 200 ppm in [6] is ≥ 80%. The pest or weed control at 200 ppm with Pyrenophora teres was ≥ 80%. Besides, the pest or weed control at 200 ppm in series [7] was ≥ 80%.

Compound `CO/N=C1\CC(C)(C)Cc2nc(-c3cccc(Cc4ccccc4OC)n3)ncc21` [Compound 10] gave a melting point of 239 to 241 °C.

`CC1(C)CCc2cnc(-c3cccc(Cc4ccc(Cl)cc4)n3)nc2C1` [Compound 12] came in with a melting point of 183 to 184 °C. In addition, the inhibition at 200 ppm in series [4] is ≥ 80%. Further, in series [6], the inhibition at 200 ppm was ≥ 80%.

Compound `CC1(C)CCc2cnc(-c3cccc(Cc4ccccc4Cl)n3)nc2C1` [Compound 13] displayed a melting point of 272 to 273 °C. For the same compound, the inhibition at 200 ppm in series [2] is ≥ 80%. For the same compound, the inhibition at 200 ppm in series [4] was ≥ 80%. Besides, in [8], the inhibition at 200 ppm is ≥ 80%. Also, the inhibition at 200 ppm in series [5] is ≥ 80%. Also, in [6], the inhibition at 200 ppm is ≥ 80%. In addition, the pest or weed control at 200 ppm in series [7] was ≥ 80%. The inhibition at 200 ppm in series [9] was ≥ 80%.

Regarding `COc1ccccc1Cc1cccc(-c2ncc3c(n2)CC(C)(C)CC3)n1` [Compound 14, 2-[6-(2-methoxybenzyl)-pyridin-2-yl]-7,7-dimethyl-5,6,7,8-tetrahydroquinazoline], the melting point was 251 to 252 °C. Besides, the inhibition at 200 ppm in series [2] is ≥ 80%. Besides, the inhibition at 200 ppm in [4] was ≥ 80%. Further, in [8], the inhibition at 200 ppm was ≥ 80%. Moreover, the inhibition at 200 ppm in the series on Gaeumannomyces graminis is ≥ 80%. In series [5], the inhibition at 200 ppm was ≥ 80%. Also, the inhibition at 200 ppm in [6] was ≥ 80%. Further, in the series with Pyrenophora teres, the pest or weed control at 200 ppm is ≥ 80%. Besides, the inhibition at 200 ppm in [9] was ≥ 80%.

Take `Cc1ccccc1Cc1cccc(-c2ncc3c(n2)CC(C)(C)CC3)n1` [Compound 15]: the melting point was 259 to 260 °C. In addition, the inhibition at 200 ppm in series [2] was ≥ 80%. Besides, the inhibition at 200 ppm in series [4] was ≥ 80%. The inhibition at 200 ppm in series [8] is ≥ 80%. In addition, the inhibition at 200 ppm in [5] is ≥ 80%. Moreover, the inhibition at 200 ppm in series [6] was ≥ 80%. The pest or weed control at 200 ppm in the series on Pyrenophora teres was ≥ 80%. Further, the pest or weed control at 200 ppm in [7] was ≥ 80%. In series [9], the inhibition at 200 ppm was ≥ 80%.

Compound `CC1(C)CCc2cnc(-c3cccc(Cc4cccc(Cl)c4)n3)nc2C1` [Compound 16] yielded a melting point of 219 to 220 °C. Further, the inhibition at 200 ppm in series [2] is ≥ 80%. The inhibition at 200 ppm in series [4] was ≥ 80%. For the same compound, the inhibition at 200 ppm in series [8] is ≥ 80%. Further, the inhibition at 200 ppm in series [5] was ≥ 80%. In series [6], the inhibition at 200 ppm is ≥ 80%. Further, the pest or weed control at 200 ppm in the series with Pyrenophora teres was ≥ 80%. For the same compound, in series [7], the pest or weed control at 200 ppm was ≥ 80%.

In the case of `O=C1CCCc2nc(-c3cccc(Cc4ccccc4)n3)ncc21` [Compound 20], the melting point was 69 to 75 °C. In series [2], the inhibition at 200 ppm was ≥ 80%. Moreover, the inhibition at 200 ppm in series [4] was ≥ 80%. In series [8], the inhibition at 200 ppm was ≥ 80%. Moreover, in the series with Gaeumannomyces graminis, the inhibition at 200 ppm was ≥ 80%. In series [6], the inhibition at 200 ppm was ≥ 80%.

`COc1ccc(OC)c(Cc2cccc(-c3ncc4c(n3)CCOC4)n2)c1` [Compound 22] came in with a melting point of 286 to 288 °C. In addition, the pest or weed control at 200 ppm in series [1] is ≥ 80%. Besides, in [2], the inhibition at 200 ppm was ≥ 80%. Moreover, the pest or weed control at 200 ppm in series [3] was ≥ 80%. The inhibition at 200 ppm in [8] was ≥ 80%. The inhibition at 200 ppm with Gaeumannomyces graminis was ≥ 80%. Also, the inhibition at 200 ppm in series [6] was ≥ 80%. In the series with Pyrenophora teres, the pest or weed control at 200 ppm was ≥ 80%. Besides, the pest or weed control at 200 ppm in series [7] is ≥ 80%.

In the case of `COc1ccc(Cc2cccc(-c3ncc4c(n3)CC(C)(C)CC4)n2)cn1` [Compound 42], the pest or weed control at 200 ppm (in [1]; in [3]; with Pyrenophora teres; in series [7]) was ≥ 80% each time. Besides, the inhibition at 200 ppm (in series [2]; in series [4]; in series [8]; with Gaeumannomyces graminis; in [5]; in series [6]) was ≥ 80% in each case. For the same compound, the inhibition at 200 ppm in series [9] was ≥ 80%.

In the case of `COc1ccc(C(C)c2cccc(-c3ncc4c(n3)CCCC4)n2)nc1` (centres unmarked) [Compound 44], the pest or weed control at 200 ppm (in [1]; in series [3]; in the series on Pyrenophora teres; in series [7]) was ≥ 80% each time. The inhibition at 200 ppm (in [2]; in series [4]; in series [8]; in the series on Gaeumannomyces graminis; in series [5]; in series [6]) was ≥ 80% in each case. Also, the inhibition at 200 ppm in series [9] is ≥ 80%.
